In patent US20090270350A1, “Pyridinone Pyrazole Urea and Pyrimidinone Pyrazole Urea Derivatives” (PFIZER INC., priority 2006, published 2009):

System: not given
Assay: not given
Details: not given
In the case of `CNC(=O)c1ccc(C)c(-n2c(C)cc(OCc3ccccc3CNC(=O)Nc3cc(C(C)(C)C)nn3-c3ccc(Cl)c(O)c3)c(Cl)c2=O)c1` [Example 161, 3-[4-(2-{3-[5-tert-butyl-2-(4-chloro-3-hydroxy-phenyl)-2H-pyrazol-3-yl]-ureidomethyl}-benzyloxy)-3-chloro-6-methyl-2-oxo-2H-pyridin-1-yl]-4,N-dimethyl-benzamide], the melting point is reported as 201 to 203 °C. `CNC(=O)c1ccc(C)c(-n2c(C)cc(OCc3ccccc3CNC(=O)Nc3cc(C(C)(C)C)nn3-c3cccc(OCCO)c3)c(Cl)c2=O)c1` [Example 133, 3-{4-[2-(3-{5-tert-butyl-2-[3-(2-hydroxy-ethoxy)-phenyl]-2H-pyrazol-3-yl}-ureidomethyl)-benzyloxy]-3-chloro-6-methyl-2-oxo-2H-pyridin-1-yl}-4,N-dimethyl-benzamide] showed a melting point of 168 to 170 °C.

Molecular target: p38α (Homo sapiens, UniProt Q16539)
Sequence (Q16539 whole entry): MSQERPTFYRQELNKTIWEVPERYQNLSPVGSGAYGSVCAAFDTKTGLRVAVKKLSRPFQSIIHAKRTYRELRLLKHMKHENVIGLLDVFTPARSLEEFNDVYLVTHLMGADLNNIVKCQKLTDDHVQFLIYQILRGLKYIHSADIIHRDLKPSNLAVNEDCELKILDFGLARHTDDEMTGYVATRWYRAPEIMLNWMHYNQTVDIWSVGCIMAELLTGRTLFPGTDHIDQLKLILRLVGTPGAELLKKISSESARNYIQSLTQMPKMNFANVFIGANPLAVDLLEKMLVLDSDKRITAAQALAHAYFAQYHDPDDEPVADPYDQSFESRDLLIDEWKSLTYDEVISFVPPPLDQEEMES
Assay: p38α/MK2 cascade assay
Assay type: biochemical
Details: Table 1; inhibitors preincubated with p38α for 40 minutes; phosphorylation of Hsp27 peptide by MK-2, Caliper LabChip 3000; read-out: p38a/MK2 Cascade 40 min Pre-Incuabtion (% Inhibition): IC50
How it was run: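 In a cascade format, p38α was preincubated 40 min with inhibitor (1000–0.05 nM) before adding 1 nM nonactive MK2 (54-400), 5 μM MgATP and 0.5 μM FITC-Hsp27 peptide. Reaction ran 60 min in HEPES pH 7.5 with MgCl2, DTT, 2% DMSO, then EDTA-quenched. Peptide phosphorylation was measured by Caliper mobility shift to give IC50.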
Molecule `COc1ccc(Cn2c(C)cc(OCc3ccccc3CNC(=O)Nc3cc(C(C)(C)C)nn3-c3cccc(O)c3)c(Cl)c2=O)cc1Cl` [Example 65, 1-[3-tert-butyl-1-(3-hydroxyphenyl)-1H-pyrazol-5-yl]-3-[2-({[3-chloro-1-(3-chloro-4-methoxybenzyl)-6-methyl-2-oxo-1,2-dihydropyridin-4-yl]oxy}methyl)benzyl]urea] has an IC50 of 6.9 nM. In the case of `COc1ccc(Cn2c(C)cc(OCc3ccccc3CNC(=O)Nc3cc(C(C)(C)C)nn3-c3ccc(Cl)c(O)c3)c(Cl)c2=O)cc1Cl` [Example 67, 1-[3-tert-butyl-1-(4-chloro-3-hydroxyphenyl)-1H-pyrazol-5-yl]-3-[2-({[3-chloro-1-(3-chloro-4-methoxybenzyl)-6-methyl-2-oxo-1,2-dihydropyridin-4-yl]oxy}methyl)benzyl]urea], the IC50 is reported as 7.9 nM. With `Cc1cc(OCc2ccccc2CNC(=O)Nc2cc(C(C)(C)C)nn2-c2ccccc2)c(Br)c(=O)n1Cc1ccccc1` [Example 104, 1-(2-{[(1-benzyl-3-bromo-6-methyl-2-oxo-1,2-dihydropyridin-4-yl)oxy]methyl}benzyl)-3-(3-tert-butyl-1-phenyl-1H-pyrazol-5-yl)urea] the IC50 was 4.52 nM. `COC(=O)c1ccc(C)c(-n2c(C)cc(OCc3ccc(F)cc3CNC(=O)Nc3cc(C(C)(C)C)nn3-c3ccc(C)cc3)c(Br)c2=O)c1` [Example 185, methyl 3-{3-bromo-4-[(2-{[({[3-tert-butyl-1-(4-methylphenyl)-1H-pyrazol-5-yl]amino}carbonyl)amino]methyl}-4-fluorobenzyl)oxy]-6-methyl-2-oxopyridin-1(2H)-yl}-4-methylbenzoate] showed an IC50 of 3.61 nM. `COc1ccc(Cn2c(C)cc(OCc3ccccc3CNC(=O)Nc3cc(C(C)(C)C)nn3-c3ccccc3)c(Br)c2=O)c(OC)c1` [Example 120, 1-[2-({[3-bromo-1-(2,4-dimethoxybenzyl)-6-methyl-2-oxo-1,2-dihydropyridin-4-yl]oxy}methyl)benzyl]-3-(3-tert-butyl-1-phenyl-1H-pyrazol-5-yl)urea] showed an IC50 of 15.5 nM.

Same assay, conditions: Table 2; same p38α/MK2 cascade assay; 40 minutes preincubation; read-out: p38a/MK2 Cascade 40 min Pre-Incuabtion (% Inhibition): IC50
Work on `CSc1ccccc1Cn1c(C)cc(OCc2ccccc2CNC(=O)Nc2cc(C(C)(C)C)nn2-c2cccc(O)c2)c(C)c1=O` [Example 278, 1-[3-tert-butyl-1-(3-hydroxyphenyl)-1H-pyrazol-5-yl]-3-{2-[({3,6-dimethyl-1-[2-(methylthio)benzyl]-2-oxo-1,2-dihydropyridin-4-yl}oxy)methyl]benzyl}urea] yielded an IC50 of 13.2 nM. With `COc1ccccc1Cn1c(C)cc(OCc2ccccc2CNC(=O)Nc2cc(C(C)(C)C)nn2-c2ccc(O)cc2)c(Cl)c1=O` [Example 246, 1-[3-tert-butyl-1-(4-hydroxyphenyl)-1H-pyrazol-5-yl]-3-[2-({[3-chloro-1-(2-methoxybenzyl)-6-methyl-2-oxo-1,2-dihydropyridin-4-yl]oxy}methyl)benzyl]urea] the IC50 was 10 nM. Molecule `Cc1ccc(-n2nc(C(C)(C)C)cc2NC(=O)NCc2cc(F)ccc2COc2cc(C)n(-c3cc(C(=O)O)ccc3C)c(=O)c2Br)cc1` [Example 207, 3-{3-bromo-4-[(2-{[({[3-tert-butyl-1-(4-methylphenyl)-1H-pyrazol-5-yl]amino}carbonyl)-amino]methyl}-4-fluorobenzyl)oxy]-6-methyl-2-oxopyridin-1(2H)-yl}-4-methylbenzoic acid] has an IC50 of 4.54 nM. With `Cc1ccc(C(=O)N[C@@H](C)C(N)=O)cc1-n1c(C)cc(OCc2ccccc2CNC(=O)Nc2cc(C(C)(C)C)nn2-c2ccc(O)cc2)c(Cl)c1=O` [Example 220, N-[(1S)-2-amino-1-methyl-2-oxoethyl]-3-{4-[(2-{[({[3-tert-butyl-1-(4-hydroxyphenyl)-1H-pyrazol-5-yl]amino}carbonyl)-amino]methyl}benzyl)oxy]-3-chloro-6-methyl-2-oxopyridin-1(2H)-yl}-4-methylbenzamide] the IC50 was 1.4 nM. `COCCNC(=O)c1ccc(C)c(-n2c(C)cc(OCc3ccccc3CNC(=O)Nc3cc(C(C)(C)C)nn3-c3ccc(O)cc3)c(Cl)c2=O)c1` [Example 218, 3-{4-[(2-{[({[3-tert-butyl-1-(4-hydroxyphenyl)-1H-pyrazol-5-yl]amino}carbonyl)amino]methyl}benzyl)oxy]-3-chloro-6-methyl-2-oxopyridin-1(2H)-yl}-N-(2-methoxyethyl)-4-methyl-benzamide] gave an IC50 of 1.81 nM. In the case of `CSc1ccccc1Cn1c(C)cc(OCc2ccccc2CNC(=O)Nc2cc(C(C)(C)C)nn2-c2cccc(O)c2)c(Cl)c1=O` [Example 271, 1-[3-tert-butyl-1-(3-hydroxyphenyl)-1H-pyrazol-5-yl]-3-{2-[({3-chloro-6-methyl-1-[2-(methylthio)benzyl]-2-oxo-1,2-dihydropyridin-4-yl}oxy)methyl]benzyl}urea], the IC50 is reported as 14.1 nM. Molecule `Cc1cc(OCc2ccccc2CNC(=O)Nc2cc(C(C)(C)C)nn2-c2ccc(Cl)c(O)c2)c(Cl)c(=O)n1Cc1ccc(CNC(=O)CN)cc1` [Example 272, N-[4-({4-[(2-{[({[3-tert-butyl-1-(4-chloro-3-hydroxyphenyl)-1H-pyrazol-5-yl]amino}carbonyl)amino]methyl}benzyl)oxy]-3-chloro-6-methyl-2-oxopyridin-1(2H)-yl}methyl)benzyl]-glycinamide] has an IC50 of 2.4 nM. `CNC(=O)c1ccc(C)c(-n2c(C)cc(OCc3ccc(F)cc3CNC(=O)Nc3cc(C(C)(C)C)nn3-c3ccc(C)cc3)c(Br)c2=O)c1` [Example 279, 3-{3-bromo-4-[(2-{[({[3-tert-butyl-1-(4-methylphenyl)-1H-pyrazol-5-yl]amino}carbonyl)-amino]methyl}-4-fluorobenzyl)oxy]-6-methyl-2-oxopyridin-1(2H)-yl}-N,4-dimethylbenzamide] gave an IC50 of 3.67 nM. For `COc1cc(Cn2c(C)cc(OCc3ccccc3CNC(=O)Nc3cc(C(C)(C)C)nn3-c3cccc(OCCO)c3)c(Cl)c2=O)ccc1Cl` [Example 255, 1-{3-tert-butyl-1-[3-(2-hydroxyethoxy)phenyl]-1H-pyrazol-5-yl}-3-[2-({[3-chloro-1-(4-chloro-3-methoxybenzyl)-6-methyl-2-oxo-1,2-dihydropyridin-4-yl]oxy}methyl)benzyl]urea], the IC50 was 7.2 nM. For `CNC(=O)c1ccc(C)c(-n2c(C)cc(OCc3ccccc3CNC(=O)Nc3cc(C(C)(C)C)nn3-c3ccc(Cl)c(O)c3)c(Cl)c2=O)c1` [Example 226, 3-{4-[(2-{[({[3-tert-butyl-1-(4-chloro-3-hydroxyphenyl)-1H-pyrazol-5-yl]amino}carbonyl)amino]methyl}benzyl)oxy]-3-chloro-6-methyl-2-oxopyridin-1(2H)-yl}-N,4-dimethylbenzamide], the IC50 was 3.6 nM. Work on `COCCNC(=O)c1ccc(C)c(-n2c(C)cc(OCc3ccccc3CNC(=O)Nc3cc(C(C)(C)C)nn3-c3ccc(Cl)c(O)c3)c(Cl)c2=O)c1` [Example 230, 3-{4-[(2-{[({[3-tert-butyl-1-(4-chloro-3-hydroxyphenyl)-1H-pyrazol-5-yl]amino}carbonyl)amino]methyl}benzyl)oxy]-3-chloro-6-methyl-2-oxopyridin-1(2H)-yl}-N-(2-methoxyethyl)-4-methylbenzamide] yielded an IC50 of 1.92 nM. `COc1ccccc1Cn1c(C)cc(OCc2ccccc2CNC(=O)Nc2cc(C(C)(C)C)nn2-c2ccc(O)cc2)c(C)c1=O` [Example 263, 1-[3-tert-butyl-1-(4-hydroxyphenyl)-1H-pyrazol-5-yl]-3-[2-({[1-(2-methoxybenzyl)-3,6-dimethyl-2-oxo-1,2-dihydropyridin-4-yl]oxy}methyl)benzyl]urea] gave an IC50 of 23.1 nM. With `Cc1ccc(C(=O)NCCO)cc1-n1c(C)cc(OCc2ccccc2CNC(=O)Nc2cc(C(C)(C)C)nn2-c2ccc(O)c(Cl)c2)c(Cl)c1=O` [Example 224, 3-{4-[(2-{[({[3-tert-butyl-1-(3-chloro-4-hydroxyphenyl)-1H-pyrazol-5-yl]amino}carbonyl)amino]methyl}benzyl)oxy]-3-chloro-6-methyl-2-oxopyridin-1(2H)-yl}-N-(2-hydroxyethyl)-4-methylbenzamide] the IC50 was 3.2 nM. `CSc1ccccc1Cn1c(C)cc(OCc2ccccc2CNC(=O)Nc2cc(C(C)(C)C)nn2-c2cccc(OCCO)c2)c(Cl)c1=O` [Example 269, 1-{3-tert-butyl-1-[3-(2-hydroxyethoxy)phenyl]-1H-pyrazol-5-yl}-3-{2-[({3-chloro-6-methyl-1-[2-(methylthio)benzyl]-2-oxo-1,2-dihydropyridin-4-yl}oxy)methyl]benzyl}urea] gave an IC50 of 20.4 nM. `COc1ccc(Cn2c(C)cc(OCc3ccccc3CNC(=O)Nc3cc(C(C)(C)C)nn3-c3ccc(Cl)c(O)c3)c(C)c2=O)cc1Cl` [Example 260, 1-[3-tert-butyl-1-(4-chloro-3-hydroxyphenyl)-1H-pyrazol-5-yl]-3-[2-({[1-(3-chloro-4-methoxybenzyl)-3,6-dimethyl-2-oxo-1,2-dihydropyridin-4-yl]oxy}methyl)benzyl]urea] gave an IC50 of 15.4 nM.
